Laboratory results: patent publication US12172946B2, “Compound containing diphenylmethane structure and use thereof” (GUANGZHOU TROJAN PHARMATEC LTD., priority 2019, dated 2024)

Assay: solubility of the compound in common solvents
Format: physicochemical
Conditions: 25-30° C.; for solubility in DMF: N,N-dimethylformamide; for solubility in i-PrOAc: isopropyl acetate; for solubility in MTBE: methyl tert-butyl ether
Description: The solubility of the compound of the present invention in common solvents was investigated (25-30° C.), and the results are shown in Table 1. It can be seen from Table 1 that the compound of the present invention has good solubility in all of heptane, isopropyl acetate (i-PrOAc), methyl tert-butyl ether (MTBE) and N,N-dimethylformamide (DMF), and particularly, the solubility in N,N-dimethylformamide is much higher than Comparative Examples.

Molecule	solubility in DMSO [%]	solubility in MeOH [%]	solubility in DMF [%]	solubility in Heptane [%]	solubility in i-PrOAc [%]	solubility in MTBE [%]
4,4′-di(2-(2-(3,4,5-tris(2,3-dihydrophytoxy)-benzamido)-ethoxy)-ethoxy)-benzhydrylamine [DPA-004]	<1	<1	>1	>50	>100	>100
4,4′-di((5-(3,4,5-tris(isononyloxy)-benzamido)-2-one-3-aza-hexyl)oxy)-benzhydrylamine [DPA-009]	<1	<1	>30	>10	>25	>30
4-(2-(2-(3,4,5-tri(octa/decy/dodecyloxy)-benzamido)-ethoxy)-ethoxy)-benzhydrylamine [DPA-024]	<1	<1	>30	>50	>100	>100
4-(2-(2-(3,4,5-tris(isomeric decyloxy)-benzamido)-ethoxy)-ethoxy)-benzhydrylamine [DPA-006]	<1	<1	>100	>100	>100	>100
CC(C)CCCCCOc1cc(C(=O)NCCOCCOc2ccc(C(N)c3ccc(OCCOCCNC(=O)c4cc(OCCCCCC(C)C)c(OCCCCCC(C)C)c(OCCCCCC(C)C)c4)cc3)cc2)cc(OCCCCCC(C)C)c1OCCCCCC(C)C [DPA-001, 4,4′-di(2-(2-(3,4,5-tris(isooctyloxy)-benzamido)-ethoxy)-ethoxy) benzhydrylamine]	<1	<1	>20	>25	>30	>30
CCCCCCCCCCCCCOc1cc(C(=O)NCCOCCOc2ccc(C(N)c3ccc(OCCOCCNC(=O)c4cc(OCCCCCCCCCCCCC)c(OCCCCCCCCCCCCC)c(OCCCCCCCCCCCCC)c4)cc3)cc2)cc(OCCCCCCCCCCCCC)c1OCCCCCCCCCCCCC [DPA-003, 4,4′-di(2-(2-(3,4,5-tris(isomeric tridecyloxy)-benzamido)-ethoxy)-ethoxy)-benzhydrylamine]	<1	<1	>20	>50	>100	>100
CCCCCCCCCCCCCOc1cc(C(=O)NCCOCCOc2ccc(C(N)c3ccccc3)cc2)cc(OCCCCCCCCCCCCC)c1OCCCCCCCCCCCCC (stereo not drawn) [DPA-007, 4-(2-(2-(3,4,5-tris(isomeric tridecyloxy)-benzamido)-ethoxy)-ethoxy)-benzhydrylamine]	<1	<1	>100	>100	>100	>100
CC(C)CCCCCCOc1cc(C(=O)NCCOCCOc2ccc(C(N)c3ccc(Cl)cc3)cc2)cc(OCCCCCCC(C)C)c1OCCCCCCC(C)C (stereo not drawn) [DPA-011, 4-(2-(2-(3,4,5-tris(isononyloxy)-benzamido)-ethoxy)-ethoxy)-4′-chloro-benzhydrylamine]	<1	<1	>150	>100	>100	>50
CCCCCCCCCCCCCOc1ccc(CC(=O)NCCOCCOc2ccc(C(N)c3ccccc3)cc2)cc1OCCCCCCCCCCCCC (stereo not drawn) [DPA-013, 4-(2-(2-(3,4-di(isomeric tridecyloxy)-phenylacetamido)-ethoxy)-ethoxy)-benzhydrylamine]	<1	<1	>50	>50	>70	>50
CC(C)CCCCCCCCCCCCCCC(=O)NCCCCC(NC(=O)CCCCCCCCCCCCCCC(C)C)C(=O)NCCOCCOc1ccc(C(N)c2ccccc2)cc1 (stereo not drawn) [DPA-014, 4-(2-(2-(2,6-diisostearamido-hexanamido)-ethoxy)-ethoxy)-benzhydrylamine]	<10	<10	>40	>30	>50	>50
CCCCCCCCCCCCCOc1cc(C(=O)NCCCC(=O)NCCOCCOc2ccc(C(N)c3ccccc3)cc2)cc(OCCCCCCCCCCCCC)c1OCCCCCCCCCCCCC (stereo not drawn) [DPA-015, 4-(2-(2-(4-(3,4,5-tri(isomeric tridecyloxy)-benzamido)-butyrylamido)-ethoxy)-ethoxy)-benzhydrylamine]	<1	<1	>100	>50	>100	>100
CCCCCCCCCCCCCOc1cc(C(=O)NCCCCC(NC(=O)c2cc(OCCCCCCCCCCCCC)c(OCCCCCCCCCCCCC)c(OCCCCCCCCCCCCC)c2)C(=O)NCCOCCOc2ccc(C(N)c3ccccc3)cc2)cc(OCCCCCCCCCCCCC)c1OCCCCCCCCCCCCC (stereo not drawn) [DPA-017]	<5	<5	>100	>100	>100	>100
CC(CCC(C(=O)NCCOCCOc1ccc(C(N)c2ccc(OCCOCCNC(=O)C(CCC(C)CC(C)(C)C)C(C)CC(C)(C)C)cc2)cc1)C(C)CC(C)(C)C)CC(C)(C)C (stereo not drawn) [DPA-018, 4,4′-di(2-(2-(isostearamido)-ethoxy)-ethoxy)-benzhydrylamine]	<5	<10	>100	>5	>100	>100
CC(CCC(C(=O)N(CCOCCOc1ccc(C(N)c2ccccc2)cc1)Cc1ccccc1)C(C)CC(C)(C)C)CC(C)(C)C (stereo not drawn) [DPA-019]	<5	<10	>50	>50	>100	>100
CC(CCC(C(=O)N(CCOCCOc1ccc(C(N)c2ccc(OCCOCCN(Cc3ccccc3)C(=O)C(CCC(C)CC(C)(C)C)C(C)CC(C)(C)C)cc2)cc1)Cc1ccccc1)C(C)CC(C)(C)C)CC(C)(C)C (stereo not drawn) [DPA-020]	<5	<5	>100	>100	>100	>100
CCCCCCCCCCCCOc1cc(C(=O)NCCOCCOc2ccc(C(N)c3ccccc3)cc2)cc(OCCCCCCCCCCCC)c1OCCCCCCCCCCCC (stereo not drawn) [DPA-023, 4-(2-(2-(3,4,5-tri(n-dodecyloxy)-benzamido)-ethoxy)-ethoxy)-benzhydrylamine]	<5	<5	>30	>50	>50	>50
CCCCCCCCCCCCCOc1cc(C(=O)N(C)CCOc2ccc(C(N)c3ccccc3)cc2)cc(OCCCCCCCCCCCCC)c1OCCCCCCCCCCCCC (stereo not drawn) [DPA-026, 4-(2-(N′-methy-3,4,5-tri(isomeric tridecyloxy)-benzamido)-ethoxy)-benzhydrylamine]	<1	<1	>100	>50	>100	>100
CCCCCCCCCCCCCOc1ccc(CN(CCOCCOc2ccc(C(N)c3ccccc3)cc2)C(C)=O)cc1OCCCCCCCCCCCCC (stereo not drawn) [DPA-027]	<1	<1	>75	>50	>75	>75
CCCCCCCCCCCCCOc1ccc(CN(CCOCCOc2ccc(C(N)c3ccccc3)cc2)C(=O)CC(C)CC(C)(C)C)cc1OCCCCCCCCCCCCC (stereo not drawn) [DPA-028]	<1	<1	>100	>100	>100	>100
CCCCCCCCCCCCCOc1ccc(CN(CCOCCOc2ccc(C(N)c3ccccc3)cc2)C(=O)c2cc(OCCCCCCCCC)c(OCCCCCCCCC)c(OCCCCCCCCC)c2)cc1OCCCCCCCCCCCCC (stereo not drawn) [DPA-029]	<1	<1	>100	>100	>100	>100
CCCCCCCCCCCCCOc1ccc(CN(CC(=O)NCCOCCOc2ccc(C(N)c3ccccc3)cc2)C(=O)CC(C)CC(C)(C)C)cc1OCCCCCCCCCCCCC (stereo not drawn) [DPA-030, 4-(2-(2-(2-(N″-3,4-di(isomeric tridecyloxy)-benzyl)-isononanoamido)-acetamido)-ethoxy)-ethoxy-benzhydrylamine]	<1	<1	>40	>40	>40	>40
CCCCCCCCCCCCCOc1ccc(CN(CC(=O)NCCOCCOc2ccc(C(N)c3ccccc3)cc2)C(=O)c2cc(OCCCCCCCCC)c(OCCCCCCCCC)c(OCCCCCCCCC)c2)cc1OCCCCCCCCCCCCC (stereo not drawn) [DPA-031, 4-(2-(2-(2-(N″-3,4-di(isomeric tridecyloxy)-benzyl)-3,4,5-tri(isononyloxy)-benzamido)-acetamido)-ethoxy)-ethoxy-benzhydrylamine]	<1	<1	>100	>50	>100	>100
